In the supplement of paper PMC11061612:

Key:
AU565 (Breast Carcinoma) [1] = assay: combination Emax (second highest fraction inhibited in the dose matrix, 72 h); higher = more inhibition; extreme values may be limits of the assay
Method in brief: (§1)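 After 24 hours at 37°C and 5% CO2 in 1536-well plates, cells in DMEM/F12 or RPMI plus 10% FBS received two-drug dose matrices for 72 hours. Viability came from CellTiter-Glo 2.0 luminescence and was scaled as inhibition, anchored at 0 by vehicle wells and at 1 by blank wells. Combination Emax is taken as the second-highest inhibition in the matrix, and Bliss excess as the observed combination effect less EA + EB − EA·EB, with EA and EB the single-agent effects.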

[2] = tested on: LU-165 (Small Cell Lung Carcinoma); assay: as above
Method in brief: as §1

[3] = tested on: HCC1395 (Breast Carcinoma); assay: as above
Method in brief: as §1

[4] = tested on: NCI-H1703 (Squamous Cell Lung Carcinoma); assay: as above
Method in brief: as §1

[5] = tested on: NCI-H2087 (Lung Adenocarcinoma); assay: as above
Method in brief: as §1

AU565 (Breast Carcinoma) [6] = assay: Bliss excess, mean over the matrix (fraction); higher = more synergy
Method in brief: as §1

WM1552C (Melanoma) = assay: as above
Method in brief: as §1

A204 (Rhabdomyosarcoma) = assay: as above
Method in brief: as §1

[7] = tested on: NCI-H716 (Colorectal Carcinoma); assay: as above
Method in brief: as §1

COLO-792 (Melanoma) = assay: as above
Method in brief: as §1

[8] = tested on: LS-411N (Colorectal Carcinoma); assay: as above
Method in brief: as §1

NB13 (Neuroblastoma) = assay: as above
Method in brief: as §1

[9] = tested on: NCI-H1703 (Squamous Cell Lung Carcinoma); assay: as above
Method in brief: as §1

[10] = tested on: CA46 (Burkitt's Lymphoma); assay: as above
Method in brief: as §1

[11] = tested on: JHU-022 (Oral Cavity Carcinoma); assay: as above
Method in brief: as §1

[12] = tested on: NCI-H441 (Lung Adenocarcinoma); assay: as above
Method in brief: as §1

PEO1 (Ovarian Carcinoma) = assay: as above
Method in brief: as §1

[13] = tested on: ESO26 (Esophageal Adenocarcinoma); assay: as above
Method in brief: as §1

[14] = tested on: MHH-ES-1 (Ewing's Sarcoma); assay: as above
Method in brief: as §1

EW-7 (Ewing's Sarcoma) = assay: as above
Method in brief: as §1
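Wherever Bliss excess, mean over the matrix is given: after 72 h of two-drug dosing.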

Structure (SMILES)	combination Emax (AU565 (Breast Carcinoma) [1])	combination Emax [2]	combination Emax [3]	combination Emax [4]	combination Emax [5]	Bliss excess (AU565 (Breast Carcinoma) [6])	Bliss excess (WM1552C (Melanoma))	Bliss excess (A204 (Rhabdomyosarcoma))	Bliss excess [7]	Bliss excess (COLO-792 (Melanoma))	Bliss excess [8]	Bliss excess (NB13 (Neuroblastoma))	Bliss excess [9]	Bliss excess [10]	Bliss excess [11]	Bliss excess [12]	Bliss excess (PEO1 (Ovarian Carcinoma))	Bliss excess [13]	Bliss excess [14]	Bliss excess (EW-7 (Ewing's Sarcoma))
CN(C)CCCOc1ccc(-c2ccc3ncc4c(c3c2)n(C2CCOCC2)c(=O)n4C)cn1 [AZD0156] + C=CCn1c(=O)c2cnc(Nc3ccc(N4CCN(C)CC4)cc3)nc2n1-c1cccc(C(C)(C)O)n1 [AZD1775] (first compound max 1 µM, partner max 1 µM)	0.454	0.38	0.682	0.967	0.332	-0.016	0.0116	-0.0545	0.022	-0.017	-0.0042	0.0215	-0.051	-0.0283	-0.0446	-0.0963	-0.0442	-0.0322	-0.0402	0.039
CN(C)CCCOc1ccc(-c2ccc3ncc4c(c3c2)n(C2CCOCC2)c(=O)n4C)cn1 [AZD0156] + CCN(CCO)CCCOc1ccc2c(Nc3cc(CC(=O)Nc4cccc(F)c4)[nH]n3)ncnc2c1 [AZD2811] (first compound max 1 µM, 7x7, partner max 1 µM)	0.208	0.114	0.193	0.506	0.0658	0.0021	-0.0135	-0.0335	-0.0063	0.0167	-0.0168	0.0458	0.0059	0.0059	-0.0143	-0.0776	-0.0421	-0.037	0.0376	0.0718
CN(C)CCCOc1ccc(-c2ccc3ncc4c(c3c2)n(C2CCOCC2)c(=O)n4C)cn1 [AZD0156] + C[C@@H]1COCCN1C2=NC(=NC(=C2)C3(CC3)[S@](=N)(=O)C)C4=C5C=CNC5=NC=C4 [AZD6738] (first compound max 1 µM, 7x7, partner max 10 µM)	0.473	0.233	0.8	0.856	0.666	0.0094	0.0189	-0.038	0.0459	-0.0297	-0.0145	0.058	-0.0341	0.0799	-0.0103	-0.0718	-0.0327	0.0158	0.0361	0.0318
CN(C)CCCOc1ccc(-c2ccc3ncc4c(c3c2)n(C2CCOCC2)c(=O)n4C)cn1 [AZD0156] + O=C(c1cc(Cc2n[nH]c(=O)c3ccccc23)ccc1F)N1CCN(C(=O)C2CC2)CC1 [Olaparib] (first compound max 3 µM, partner max 3 µM)	0.631	0.21	0.315	0.582	0.12	0.0442	0.0213	-0.0255	0.002	0.0844	0.0922		0.0821	0.0156	-0.0079	-0.0003	-0.0891	-0.0039	0.148	0.119
C=CCn1c(=O)c2cnc(Nc3ccc(N4CCN(C)CC4)cc3)nc2n1-c1cccc(C(C)(C)O)n1 [AZD1775] + C1CN(CCC1(C(=O)N[C@@H](CCO)C2=CC=C(C=C2)Cl)N)C3=NC=NC4=C3C=CN4 [Capivasertib] (first compound max 3 µM, partner max 3 µM)	0.833	0.536	0.777	0.911	0.501	-0.0494	0.0306	-0.0131	-0.034	0.0596	-0.0551		0.0131	-0.0101	-0.022	-0.0427	-0.0697	-0.0424	-0.034	0.0149
C=CCn1c(=O)c2cnc(Nc3ccc(N4CCN(C)CC4)cc3)nc2n1-c1cccc(C(C)(C)O)n1 [AZD1775] + C[C@@H]1COCCN1C2=NC(=NC(=C2)C3(CC3)[S@](=N)(=O)C)C4=C5C=CNC5=NC=C4 [AZD6738] (first compound max 1 µM, partner max 10 µM)	0.603	0.48	0.896	0.958	0.729	-0.0083	0.0011	-0.0421	-0.0004	0.0941	0.0732	0.0101	0.0263	0.0061	-0.0276	-0.0834	-0.0234	0.0102	-0.0135	-0.0435
C=CCn1c(=O)c2cnc(Nc3ccc(N4CCN(C)CC4)cc3)nc2n1-c1cccc(C(C)(C)O)n1 [AZD1775] + O=C(c1cc(Cc2n[nH]c(=O)c3ccccc23)ccc1F)N1CCN(C(=O)C2CC2)CC1 [Olaparib] (first compound max 1 µM, partner max 10 µM)	0.449	0.342	0.719	0.962	0.493	-0.0195	-0.0941	-0.0881	-0.0695	-0.0241	-0.0608	0.0008	-0.0267	-0.0612	-0.0257	-0.0662	-0.013	-0.0518	-0.0196	-0.0704
CN(CCO)CC[C@H](CSc1ccccc1)Nc1ccc(S(=O)(=O)NC(=O)c2ccc(N3CCC([C@@H](O)c4ccccc4-c4ccc(Cl)cc4)CC3)cc2)cc1S(=O)(=O)C(F)(F)F [AZD4320] + CN(C)CCCOc1ccc(-c2ccc3ncc4c(c3c2)n(C2CCOCC2)c(=O)n4C)cn1 [AZD0156] (first compound max 1 µM, 7x7, partner max 1 µM)	0.253	0.526	0.202	0.367	0.321	0.0203	-0.0282	-0.0468	-0.0214		-0.0009	-0.0371	-0.0127	0.0092	-0.0584	-0.022	-0.0753	-0.025	-0.0062	0.0524
Cc1c2c(nn1C)CSCc1cc(n(C)n1)CSc1cc(c3ccccc3c1)OCCCc1c(C(=O)O)n(C)c3c-2c(Cl)ccc13 [AZD5991] + C=CCn1c(=O)c2cnc(Nc3ccc(N4CCN(C)CC4)cc3)nc2n1-c1cccc(C(C)(C)O)n1 [AZD1775] (first compound max 1 µM, partner max 1 µM)	1	0.441	0.88	0.954	0.481	0.0127	-0.0651	0.0348		0.0348	0.0376	-0.0346	-0.0214	-0.0627	-0.0072	0.0171	0.0146	0.0072	-0.0496	0.0015
Cc1c2c(nn1C)CSCc1cc(n(C)n1)CSc1cc(c3ccccc3c1)OCCCc1c(C(=O)O)n(C)c3c-2c(Cl)ccc13 [AZD5991] + CC1(C)CCC(CN2CCN(c3ccc(C(=O)NS(=O)(=O)c4ccc(NCC5CCOCC5)c([N+](=O)[O-])c4)c(Oc4cnc5[nH]ccc5c4)c3)CC2)=C(c2ccc(Cl)cc2)C1 [Venetoclax] (first compound max 1 µM, 7x7, partner max 1 µM)	1	0.291	0.736		0.153	0.0115	-0.115	-0.0226	-0.0436	0.0312	0	0.0393	0.0049	-0.02	-0.0291	-0.0189	-0.0145	-0.0209	0.0733	0.0249
Cc1c2c(nn1C)CSCc1cc(n(C)n1)CSc1cc(c3ccccc3c1)OCCCc1c(C(=O)O)n(C)c3c-2c(Cl)ccc13 [AZD5991] + CCN(CCO)CCCOc1ccc2c(Nc3cc(CC(=O)Nc4cccc(F)c4)[nH]n3)ncnc2c1 [AZD2811] (first compound max 1 µM, 7x7, partner max 1 µM)	1	0.307	0.713	0.874	0.191	0.0367	-0.0095	0.0358	-0.0013	-0.0095	0.0206	0.131	0.0139	0.0251	0.0039	-0.0142	0.0502		0.0173	0.198
CS(=O)(=O)CCNCc1ccc(-c2ccc3ncnc(Nc4ccc(OCc5cccc(F)c5)c(Cl)c4)c3c2)o1 [Lapatinib] + NC1(c2ccc(-c3nc4ccn5c(=O)[nH]nc5c4cc3-c3ccccc3)cc2)CCC1 [MK-2206] (first compound max 10 µM, 7x7, partner max 10 µM)		0.453	0.969	0.756	0.293		-0.0297				-0.0339	-0.0348	-0.0136		-0.0585	-0.0033	-0.0687		0.0191	0.0239
CCc1c2c(nc3ccc(O)cc13)-c1cc3c(c(=O)n1C2)COC(=O)[C@]3(O)CC [SN-38] + O=C(c1cc(Cc2n[nH]c(=O)c3ccccc23)ccc1F)N1CCN(C(=O)C2CC2)CC1 [Olaparib] (first compound max 0.3 µM, 7x7, partner max 10 µM)	0.891	0.478	0.518	0.882	0.909	0.0698	0.0586			0.0356	-0.012	-0.017	0.0271		0.0415	0.0449	0.0523	0.0237	0.0533	0.0538
CC1(C)CCC(CN2CCN(c3ccc(C(=O)NS(=O)(=O)c4ccc(NCC5CCOCC5)c([N+](=O)[O-])c4)c(Oc4cnc5[nH]ccc5c4)c3)CC2)=C(c2ccc(Cl)cc2)C1 [Venetoclax] + CS(=O)(=O)CCNCc1ccc(-c2ccc3ncnc(Nc4ccc(OCc5cccc(F)c5)c(Cl)c4)c3c2)o1 [Lapatinib] (first compound max 1 µM, 7x7, partner max 10 µM)		0.305	0.826	0.385	0.0976		-0.0328					-0.028	0.0019		-0.0551	-0.0292	-0.0673		0.0086	0.0078
